Results reported in article PMC12346557, “Design, Synthesis, and Anticancer Evaluation of New Small-Molecule EGFR Inhibitors Targeting NSCLC and Breast Cancer” (International Journal of Molecular Sciences, 2025).

Columns and labels:
A549 cells [1] = assay: MTT cytotoxicity assay, A549 cells; type: cell-based, human; conditions: triplicate; for reduction of A549 cell viability: 100 µM, 72 h; for IC50: Homo sapiens, A549, 72 h culture, 1-100 µM
MCF-7 cells [2] = assay: MTT cytotoxicity assay, MCF-7 cells; type: cell-based; conditions: Homo sapiens, triplicate; for inhibition at 100 µM: MCF7, 100 µM, 72 h; for IC50: MCF7, 72 h culture, 1-100 µM
Jurkat cells = assay: MTT cytotoxicity assay, Jurkat cells; type: cell-based, human; conditions: for IC50: Homo sapiens, Jurkat, MTT; for SI (Selectivity Index): IC50 for PBMC/IC50 for Jurkat cell line
Description: A549 and MCF-7 human cancer cell lines were cultured in Dulbecco’s Modified Eagle’s Medium (DMEM) (Wako Pure Chemical Industries, Osaka, Japan) supplemented with 10% fetal bovine serum (FBS) (Equitech-Bio, Kerrville, TX, USA). […] All media were supplemented with 89 μg/mL of streptomycin (Meiji Seika Pharma, Tokyo, Japan). […] Cancer cells and PBMCs were seeded into 24-well and 96-well microtiter tissue culture plates (Iwaki, Asahi Glass Co., Chiba, Japan) at densities of 4 × 10^4 cells/mL and 5 × 10^5 cells/mL, respectively, and incubated for 72 h prior to drug treatment. The optimal seeding density for cytotoxicity assays was determined through preliminary testing. […] The cellular reduction MTT (Dojindo Molecular Technologies, Kumamoto, Japan) was assessed following established protocols from the literature, with slight modifications.

PBMCs = assay: MTT cytotoxicity assay, PBMCs (healthy); type: cell-based; conditions: PBMC
Description: A549 and MCF-7 human cancer cell lines were cultured in Dulbecco’s Modified Eagle’s Medium (DMEM) (Wako Pure Chemical Industries, Osaka, Japan) supplemented with 10% fetal bovine serum (FBS) (Equitech-Bio, Kerrville, TX, USA). Jurkat cells, derived from human leukemia, were maintained in RPMI 1640 medium (Wako Pure Chemical Industries) with 10% FBS. PBMCs (Precision Bioservices, Frederick, MD, USA) were cultured in RPMI 1640 medium supplemented with 10% human AB serum (HS) (Gemini, Woodland, CA, USA). All media were supplemented with 89 μg/mL of streptomycin (Meiji Seika Pharma, Tokyo, Japan). Cells were incubated at 37 °C in a humidified atmosphere containing 95% air and 5% CO2. Cancer cells and PBMCs were seeded into 24-well and 96-well microtiter tissue culture plates (Iwaki, Asahi Glass Co., Chiba, Japan) at densities of 4 × 10^4 cells/mL and 5 × 10^5 cells/mL, respectively, and incubated for 72 h prior to drug treatment. The optimal seeding density for cytotoxicity assays was determined through preliminary testing. […] The cellular reduction MTT (Dojindo Molecular Technologies, Kumamoto, Japan) was assessed following established protocols from the literature, with slight modifications.

MCF-7 cells [3] = assay: Annexin V/ethidium homodimer-III apoptosis staining, MCF-7 cells; type: cell-based, human; conditions: IC50 concentration, 24 h, compared to control
Description: (§1) In this method, green staining indicates apoptotic cells, red indicates necrotic cells, and yellow represents cells in the late stages of apoptosis. This staining was analyzed using a fluorescence microscope. […] Furthermore, the apoptotic effect of B-2 on MCF-7 cells was assessed, showing that 4.3% of the cells underwent apoptosis after treatment, a result that was statistically significant (Figure 5b).
(§2) A549 and MCF-7 cells were treated with B-1 and B-2 at its IC50 concentration for 24 h. Following treatment, the cells were detached using 0.05% trypsin, washed twice with 1× binding buffer, and incubated in the dark at r.t. for 20 min with a staining solution containing 50 μL of 1× binding buffer, 4 μL of FITC-Annexin V solution, 4 μL of ethidium homodimer III solution, and 4 μL of Hoechst 33342 solution. After staining, the cells were washed again with 1× binding buffer, fixed in 2% paraformaldehyde, rinsed with PBS, and analyzed using the Biorevo Fluorescence BZ-9000 all-in-one fluorescence microscope (Keyence, Osaka, Japan).

[4] = biological target: T1, recombinant human EGFR (amino acids 695 to C-terminus) (Homo sapiens, UniProt P00533); assay: EGFR Kinase Enzyme System / ADP-Glo kinase assay; type: biochemical
T1 construct: recombinant human EGFR (amino acids 695 to C-terminus); purchased Promega Corporation V3831
T1 sequence (P00533 695-1210 limits assumed): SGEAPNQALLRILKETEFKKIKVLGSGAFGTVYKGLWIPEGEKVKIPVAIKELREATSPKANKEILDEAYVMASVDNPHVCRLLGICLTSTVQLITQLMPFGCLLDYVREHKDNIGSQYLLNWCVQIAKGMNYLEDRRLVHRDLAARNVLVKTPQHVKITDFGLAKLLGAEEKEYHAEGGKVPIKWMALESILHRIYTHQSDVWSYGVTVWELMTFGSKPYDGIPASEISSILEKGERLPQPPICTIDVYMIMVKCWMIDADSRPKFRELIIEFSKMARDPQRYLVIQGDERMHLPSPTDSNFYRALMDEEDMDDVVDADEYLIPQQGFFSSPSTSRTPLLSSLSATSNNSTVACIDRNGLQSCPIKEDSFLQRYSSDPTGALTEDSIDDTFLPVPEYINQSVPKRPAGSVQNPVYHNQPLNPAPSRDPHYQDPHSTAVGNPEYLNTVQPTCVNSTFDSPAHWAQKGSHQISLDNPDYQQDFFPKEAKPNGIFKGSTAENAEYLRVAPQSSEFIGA
Description: Overexpression or mutation of the EGFR gene markedly enhances cell growth and proliferation, particularly in NSCLC [41] and breast cancer, making EGFR a well-established and effective therapeutic target for these diseases. Due to their potent activity against NSCLC and breast cancer, B-1 and B-2 were further examined for their potential to inhibit EGFR.
The kinase profiling assay (EGFR Kinase Enzyme System, V3831) was conducted according to the manufacturer’s protocol (Promega Corporation, Madison, WI, USA), with minor modifications. In brief, 95 μL of 2.5× kinase buffer and 15 μL of 100 μM ATP solution were used to prepare dilutions of recombinant human EGFR (amino acids 695 to C-terminus) and its substrate (4:1 Glu:Tyr mixture). Reactions were set up in a 384-well plate, each containing 2 μL of kinase working stock, 2 μL of ATP/substrate working stock, and 1 μL of test compound solution or 5% DMSO as a control. After a 2 h incubation at r.t., kinase activity was measured using the ADP-Glo Kinase Assay (Promega), following the manufacturer’s instructions. Specifically, 5 μL of ADP-Glo Reagent was added to each well and incubated for 40 min, followed by 10 μL of Kinase Detection Reagent and a further 30 min incubation at r.t. Luminescence was recorded using the Infinite M1000 microplate reader (Tecan, Grödig, Austria) with an integration time of 0.5 to 1 s to assess the compounds’ kinase inhibitory effects in a dose-dependent manner.

A549 cells [5] = assay: Annexin V/ethidium homodimer-III apoptosis staining, A549 cells; type: cell-based, human; conditions: IC50 concentration, 24 h, compared to control
Description: as §1, §2

Cc1ccc(C(=O)/C=C/c2cnc(-c3ccc(Cl)cc3)nc2)cc1 [Compound B-1, (E)-3-(2-(4-Chlorophenyl)pyrimidin-5-yl)-1-(4-methylphenyl)-2-propen-1-one]
reduction of A549 cell viability (A549 cells [1]): 38%
IC50 (A549 cells [1]): > 100 µM
inhibition at 100 µM (MCF-7 cells [2]): 73%
IC50 (MCF-7 cells [2]): 6.1 ± 1.26 µM
IC50 (Jurkat cells): 2.12 ± 0.48 µM
SI (Selectivity Index) (Jurkat cells): 57.08
IC50 (PBMCs): 121 ± 14.8 µM
apoptosis in MCF-7 cells (MCF-7 cells [3]): 11.6%
EGFR inhibition ([4]; 1 μM): no inhibitory effect
EGFR inhibition ([4]; 10 μM): no inhibitory effect

COc1ccc(C(=O)/C=C/c2cnc(-c3ccc(Cl)cc3)nc2)cc1 [Compound B-2, (E)-3-(2-(4-Chlorophenyl)pyrimidin-5-yl)-1-(4-methoxyphenyl)-2-propen-1-one]
reduction of A549 cell viability (A549 cells [1]): 73%
IC50 (A549 cells [1]): 2.14 ± 0.83 µM
inhibition at 100 µM (MCF-7 cells [2]): 52%
IC50 (MCF-7 cells [2]): 8.91 ± 1.38 µM
IC50 (Jurkat cells): 2.96 ± 0.44 µM
SI (Selectivity Index) (Jurkat cells): 23.20
IC50 (PBMCs): 68.7 ± 9.82 µM
apoptosis in A549 cells (A549 cells [5]): 16.8%
apoptosis in MCF-7 cells (MCF-7 cells [3]): 4.3%
inhibition at 1 µM ([4]; 1 μM): 26%
inhibition at 10 µM ([4]; 10 μM): 66%
